{
  "source": "patent US11110117B2",
  "about": "“Skin preparation composition for external use containing complex hyaluronic acid” (J2KBIO CO., LTD., priority 2019, dated 2021)",
  "key": {"[1]": {"experiment": "Free radical scavenging activity by DPPH method", "type": "biochemical", "details": "sample 0.1 weight %, 30 minutes at 37° C.", "description": "Each sample was prepared at the concentration of 0.1% to measure DPPH free radical scavenging activity. Each sample at the above concentration was introduced to a 96-well plate, and DPPH produced with a 100 uM methanol solution was added thereto, such that the total volume of the solution became 200 μl. The resultant was left for 30 minutes at 37° C., and an absorbance was measured at 560 nm. The free radical scavenging activity (%) was calculated by Equation 2 below. Free radical scavenging activity (%)=100−(B/A)×100 <Equation 2> A: Absorbance of control wells in the absence of sample treatment B: Absorbance of experimental wells with sample treatment"}, "[2]": {"experiment": "Antioxidant effect (active oxygen scavenging) by NBT method", "type": "biochemical", "details": "sample 0.1 weight %, absorbance 560 nm", "description": "In order to measure the antioxidant effect, active oxygen generated by xanthine and xanthine oxidase was measured by the NBT method, and an effect of removing active oxygen by a test substance, that is, the active oxygen scavenging effect was evaluated. Active oxygen was generated by xanthine and xanthine oxidase, and this active oxygen reacts with nitro blue tetrazolium (NBT). […] 0.1 ml of a xanthine oxidase solution was added and quickly stirred, culture at 25° C. for 20 minutes was started, 0.1 ml of a 6 mM CuCl2 solution was added to stop the reaction, and an absorbance St at 560 nm was measured. In a blank test, the same operation was performed in the same manner except that distilled water was used instead of the sample solution, and an absorbance Bt was measured. In a blank of the sample solution, the same operation was performed in the same manner except that the distilled water was used instead of xanthine oxidase, and an absorbance […] was measured. Inhibition rate (%)=[1−(St−So)/(Bt−Bo)]×100 <Equation 1> St: Absorbance at 560 nm after enzyme reaction of sample solution Bt: Absorbance at 560 nm after enzyme reaction of blank test solution So: Absorbance at 560 nm before reaction of sample solution in the absence of enzyme Bo: Absorbance at 560 nm before reaction of blank test solution in the absence of enzyme"}, "[3]": {"system": "Human keratinocytes HaCaT cell lines", "experiment": "Intracellular active oxygen scavenging effect after UVB (DCFH-DA fluorescence)", "type": "cell-based", "details": "sample 0.01 weight %, UVB 20 mJ/cm^2", "description": "Cell lines used in the experiment were the Human keratinocytes HaCaT cell lines distributed from Dr. Fusenig in German Cancer Research Center. […] Subsequently, 100 μl of HCSS treated for each concentration was added, and then the fluorescence of dichlorofluorescein (DCF) oxidized with active oxygen in the early stage was measured with a fluorescent plate reader (Ex; 485 nm, and Em; 530 nm). Subsequently, irradiation with UVB (20 mJ/cm^2) was performed, and the fluorescence after the sample treatment was measured by a fluorescent plate reader (Ex; 485 nm, and Em; 530 nm)."}, "MMP-1": {"system": "MMP-1", "experiment": "MMP-1 expression inhibition after UVA irradiation (ELISA)", "type": "cell-based", "details": "retinol, concentration not given; human dermal fibroblasts, UVA 6.3 J/cm^2, 24 hours", "description": "Human dermal fibroblasts were irradiated with UVA at an energy of 6.3 J/cm^2 by using a UV chamber. With respect to UV irradiation dose and culture time, conditions for maximizing an MMP expression amount in fibroblasts were established by preliminary experiments. A negative control was wrapped in silver foil and kept for the same period of time in the UVA environment. A UVA emission amount was measured by using a UV radiometer. The cells during the UVA irradiation were the same medium inoculated before without change and were exchanged with a medium containing the samples after UVA irradiation. The medium was collected after culturing for 24 hours, and 96 wells were coated with the medium. A primary antibody (MMP-1 (Ab-5) monoclonal antibody) was treated and reacted at 37° C. for 60 minutes. After an anti-mouse IgG (whole mouse, alkaline phosphatase conjugated), which was a secondary antibody, was reacted again for about 60 minutes, the alkaline phosphatase substrate solution (1 mg/ml p-nitrophenyl phosphate in diethanolamine buffer solution) was reacted at room temperature for 30 minutes, and then an absorbance was measured at 405 nm with a plate reader. As a control, a medium to which the sample was not added was used."}, "type 1 procollagen": {"system": "type 1 procollagen", "experiment": "Type 1 procollagen biosynthesis promoting effect (procollagen type-1 C-peptide EIA)", "type": "cell-based", "details": "sample 0.001 weight %; human dermal fibroblasts, 24 hours", "description": "Human dermal fibroblasts isolated from neonatal foreskin tissues were distributed from Modern Tissue Technology (MTT, Korea), and a 10% fetal bovine serum (FBS) was added to a medium of DMEM/F-12 (3:1) and cultured at the concentration of 1×10^4 cell/cm^2. At about 70% to 80% confluence, the cells were inoculated at a ratio of 1:3 and subcultured, and the cells subcultured for the third to fourth generations were used in the experiment.\nFor experiments to measure the amount of procollagen, the fibroblasts were cultured by more than 90% in a 48-well plate, and then each of […], and an amount of collagen isolated in the medium after 24 hours was measured by using a procollagen type-1 C-peptide EIA kit (MK101, Takara, Japan)."}},
  "data": [
    {"molecule": "Cc1cc(C(C)(C)C)c(O)c(C(C)(C)C)c1", "note": "[BHT, butylated hydroxytoluene]", "values": [
      {"measurement": "Free radical scavenging activity (%)", "setting": "[1]", "value": 81, "unit": "%"},
      {"measurement": "Antioxidant effect (active oxygen scavenging) (%)", "setting": "[2]", "value": 87, "unit": "%"}
    ]},
    {"molecule": "O=C(O[C@@H]1Cc2c(O)cc(O)cc2O[C@@H]1c1cc(O)c(O)c(O)c1)c1cc(O)c(O)c(O)c1", "note": "[EGCG]", "values": [
      {"measurement": "Active oxygen scavenging effect (%)", "setting": "[3]", "value": 45, "unit": "%"}
    ]},
    {"molecule": "CC1=C(/C=C/C(C)=C/C=C/C(C)=C/CO)C(C)(C)CCC1", "note": "[Retinol, retinol]", "values": [
      {"measurement": "MMP-1 expression inhibition rate (%)", "setting": "MMP-1", "value": 38, "unit": "%"}
    ]},
    {"molecule": "TGF-β", "values": [
      {"measurement": "Procollagen biosynthesis promoting effect (%)", "setting": "type 1 procollagen", "value": 35, "unit": "%"}
    ]}
  ]
}
